Reference: ChEMBL document CHEMBL1201862, “PubChem BioAssay data set” (2004)
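Five compound concentrations were applied to cells in 96-well plates for 48 hours; endpoints were derived by simple linear interpolation of the resulting dose-response curve. GI50 is the concentration that inhibits growth by half.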 The source made the active and inactive calls. No stated cut-off is given here; in the data, active = GI50 up to about 1.1 µM and inactive = higher.

How the values were obtained:
Test in all cases: NCI tumour cell line growth inhibition, 48 h
786-0 = test system: 786-0
CCRF-CEM = test system: CCRF-CEM
HCC 2998 = test system: HCC 2998
HCT-15 = test system: HCT-15
LOX IMVI = test system: LOX IMVI
M14 = test system: M14
Malme-3M = test system: Malme-3M
NCI-H226 = test system: NCI-H226
NCI-H522 = test system: NCI-H522
SK-MEL-2 = test system: SK-MEL-2
SK-OV-3 = test system: SK-OV-3
SNB-19 = test system: SNB-19
SNB-75 = test system: SNB-75
TK-10 = test system: TK-10
OVCAR-5 = test system: OVCAR-5
SR = test system: SR
SW-620 = test system: SW-620

Measured: GI50

O=C(NN1C(=O)C(Cl)C1c1ccccc1Cl)c1ccccc1O (centres undefined)
inactive: 786-0 > 100 µM | CCRF-CEM > 100 µM | HCC 2998 > 100 µM | LOX IMVI > 100 µM | M14 > 100 µM | Malme-3M > 100 µM | NCI-H226 > 100 µM | NCI-H522 > 100 µM | SK-MEL-2 > 100 µM | SK-OV-3 > 100 µM | SNB-19 > 100 µM | SNB-75 > 100 µM | TK-10 > 100 µM
> 100 µM: HCT-15

Cc1ccc(NC(=O)/C(Cl)=C(/Cl)C(=O)O)cc1
inactive: 786-0 17.3 µM | CCRF-CEM 2.12 µM | HCC 2998 19.7 µM | LOX IMVI 17.1 µM | M14 15.2 µM | Malme-3M 15.6 µM | NCI-H226 31.8 µM | NCI-H522 1.9 µM | OVCAR-5 21 µM | SK-MEL-2 14.6 µM | SK-OV-3 18.8 µM | SNB-19 > 100 µM | SNB-75 17.7 µM | SR 18.2 µM | SW-620 15.1 µM | TK-10 18.7 µM
15.6 µM: HCT-15

CCOc1ccccc1Nc1nc(C)c(C(=O)CC(=O)C(=O)Nc2ccccc2)s1
41.9 µM: HCT-15
inactive: 786-0 99.8 µM | CCRF-CEM 39.1 µM | HCC 2998 52.7 µM | LOX IMVI 40.7 µM | M14 > 100 µM | Malme-3M > 100 µM | NCI-H226 24.3 µM | NCI-H522 30.9 µM | OVCAR-5 > 100 µM | SK-MEL-2 37.3 µM | SK-OV-3 > 100 µM | SNB-19 91.8 µM | SNB-75 25.2 µM | SR 49.7 µM | SW-620 72.4 µM | TK-10 73.8 µM

Cn1nc2ccc3nccc(NCCNCCO)c3c2n1
inactive: 786-0 38.5 µM | CCRF-CEM > 100 µM | HCC 2998 40.6 µM | LOX IMVI 20.4 µM | M14 32.5 µM | Malme-3M 36.8 µM | NCI-H226 41.2 µM | NCI-H522 37.5 µM | OVCAR-5 25 µM | SK-OV-3 34.1 µM | SNB-19 73.5 µM | SNB-75 45.2 µM | SR 10 µM | SW-620 29.4 µM | TK-10 45.8 µM
44.3 µM: HCT-15

N#Cc1cc([N+](=O)[O-])ccc1NC(=O)C(=O)Nn1c(S)nc2ccccc2c1=O
inactive: 786-0 > 100 µM | CCRF-CEM > 100 µM | HCC 2998 > 100 µM | LOX IMVI > 100 µM | M14 > 100 µM | Malme-3M > 100 µM | NCI-H226 > 100 µM | NCI-H522 > 100 µM | OVCAR-5 > 100 µM | SK-OV-3 > 100 µM | SNB-19 > 100 µM | SNB-75 > 100 µM | SR > 100 µM | SW-620 > 100 µM | TK-10 > 100 µM
> 100 µM: HCT-15

CCOC(=O)C(C)(C)Oc1ccc2c(-c3ccccc3)cc(=O)oc2c1
31.8 µM: HCT-15
inactive: 786-0 33.7 µM | CCRF-CEM 21.7 µM | HCC 2998 98.4 µM | LOX IMVI 20.2 µM | M14 36.6 µM | Malme-3M 28.6 µM | NCI-H226 33.3 µM | SK-MEL-2 22.6 µM | SNB-19 42.1 µM | SNB-75 12.9 µM | SR 24.9 µM | SW-620 36.7 µM | TK-10 56.8 µM

CC(=O)N1CCC2(C=Nc3ccccc32)CC1
> 100 µM: HCT-15
inactive: 786-0 > 100 µM | CCRF-CEM > 100 µM | HCC 2998 > 100 µM | LOX IMVI > 100 µM | M14 > 100 µM | Malme-3M > 100 µM | OVCAR-5 > 100 µM | SK-MEL-2 > 100 µM | SK-OV-3 > 100 µM | SNB-75 > 100 µM | SW-620 > 100 µM | TK-10 > 100 µM

O=[N+]([O-])c1ccc(-c2ccc(C3=Nn4c(CNc5ccccc5Cl)nnc4SC3)o2)cc1
inactive: 786-0 > 100 µM | HCC 2998 > 100 µM | LOX IMVI 42.7 µM | M14 > 100 µM | Malme-3M > 100 µM | NCI-H226 > 100 µM | NCI-H522 > 100 µM | OVCAR-5 > 100 µM | SK-MEL-2 > 100 µM | SK-OV-3 > 100 µM | SNB-19 > 100 µM | SNB-75 > 100 µM | SR > 100 µM | SW-620 > 100 µM | TK-10 > 100 µM
12.9 µM: HCT-15

NNC(=O)C(=O)N/N=C1/CCCC1C(=O)CCC(=O)Nc1ccc(Cl)cc1 (centres undefined)
12.2 µM: HCT-15
inactive: 786-0 > 100 µM | CCRF-CEM > 100 µM | HCC 2998 > 100 µM | M14 52.2 µM | Malme-3M > 100 µM | NCI-H226 > 100 µM | NCI-H522 > 100 µM | OVCAR-5 > 100 µM | SK-MEL-2 24.4 µM | SK-OV-3 > 100 µM | SNB-19 > 100 µM | SNB-75 > 100 µM | SR > 100 µM | SW-620 > 100 µM | TK-10 > 100 µM

O=CCC1CCCCC1
inactive: 786-0 > 100 µM | LOX IMVI > 100 µM | M14 > 100 µM | Malme-3M > 100 µM | NCI-H226 > 100 µM | NCI-H522 > 100 µM | OVCAR-5 > 100 µM | SK-MEL-2 > 100 µM | SK-OV-3 > 100 µM | SNB-19 > 100 µM | SNB-75 > 100 µM | SW-620 > 100 µM
> 100 µM: HCT-15

COc1ccc(-c2oc(/C=N/c3ccccc3)c([N+](=O)[O-])c2-c2ccc(OC)c(OC)c2)cc1OC
inactive: 786-0 > 100 µM | HCC 2998 > 100 µM | LOX IMVI > 100 µM | M14 > 100 µM | Malme-3M > 100 µM | NCI-H226 > 100 µM | NCI-H522 > 100 µM | OVCAR-5 > 100 µM | SK-OV-3 > 100 µM | SNB-19 > 100 µM | SNB-75 > 100 µM | SR > 100 µM | SW-620 > 100 µM | TK-10 > 100 µM
> 100 µM: HCT-15

CN(C)CCNC(=O)c1cccc2c1nc(-c1ccc(F)cc1)c1ccccc12
inactive: 786-0 4.65 µM | CCRF-CEM 1.97 µM | HCC 2998 3.34 µM | LOX IMVI 1.83 µM | M14 5.81 µM | NCI-H226 2.06 µM | OVCAR-5 3.63 µM | SK-MEL-2 10.3 µM | SK-OV-3 8.47 µM | SNB-19 6.93 µM | SNB-75 10.7 µM | SW-620 2.27 µM | TK-10 4.03 µM
2.67 µM: HCT-15

CC(=O)/C(=N\O)C(=O)NCc1ccccc1
inactive: 786-0 > 100 µM | CCRF-CEM > 100 µM | HCC 2998 > 100 µM | LOX IMVI 20.2 µM | Malme-3M > 100 µM | NCI-H226 > 100 µM | NCI-H522 > 100 µM | OVCAR-5 > 100 µM | SK-MEL-2 > 100 µM | SK-OV-3 > 100 µM | SNB-19 > 100 µM | SNB-75 > 100 µM | SR > 100 µM | SW-620 15.9 µM | TK-10 > 100 µM
35.9 µM: HCT-15

COC(=O)C1Cc2c([nH]c3ccccc23)[C@H](CC(C)C)N1 (some centres undefined)
inactive: 786-0 > 100 µM | CCRF-CEM > 100 µM | HCC 2998 > 100 µM | LOX IMVI > 100 µM | M14 > 100 µM | Malme-3M > 100 µM | NCI-H226 > 100 µM | NCI-H522 > 100 µM | OVCAR-5 > 100 µM | SK-MEL-2 > 100 µM | SK-OV-3 > 100 µM | SNB-19 > 100 µM | SNB-75 97.5 µM | SR > 100 µM | SW-620 > 100 µM | TK-10 > 100 µM

[O-][S+](c1ccc(O)cc1)c1ccc(O)cc1
inactive: 786-0 > 100 µM | CCRF-CEM > 100 µM | HCC 2998 > 100 µM | LOX IMVI > 100 µM | M14 > 100 µM | Malme-3M > 100 µM | NCI-H226 > 100 µM | NCI-H522 > 100 µM | OVCAR-5 > 100 µM | SK-MEL-2 > 100 µM | SK-OV-3 > 100 µM | SNB-19 > 100 µM | SNB-75 > 100 µM | SW-620 > 100 µM | TK-10 > 100 µM
> 100 µM: HCT-15

O=C(CN1CCN(c2ccccc2)CC1)N1CCc2c([nH]c3ccccc23)C1c1cccnc1 (centres undefined)
inactive: 786-0 15.3 µM | CCRF-CEM > 100 µM | HCC 2998 > 87.9 µM | LOX IMVI > 73.1 µM | M14 54.2 µM | Malme-3M > 100 µM | NCI-H226 > 100 µM | NCI-H522 29.3 µM | OVCAR-5 > 100 µM | SK-MEL-2 > 100 µM | SK-OV-3 25.8 µM | SNB-19 38.2 µM | SNB-75 6.92 µM | SR > 100 µM | SW-620 > 66.8 µM | TK-10 > 29.4 µM
57.3 µM: HCT-15

OC1[C@H]([C@H]2CCCC[C@@H]2O)CCC[C@@H]1[C@@H]1CCCC[C@H]1O (some centres undefined)
inactive: 786-0 > 100 µM | CCRF-CEM > 100 µM | HCC 2998 > 100 µM | LOX IMVI > 100 µM | M14 > 100 µM | Malme-3M > 100 µM | NCI-H226 > 100 µM | NCI-H522 > 100 µM | OVCAR-5 > 100 µM | SK-MEL-2 > 100 µM | SK-OV-3 > 100 µM | SNB-19 > 100 µM | SNB-75 > 100 µM | SR > 100 µM | SW-620 > 100 µM | TK-10 > 100 µM
> 100 µM: HCT-15

CCCCCCCCCC(=O)N[C@H]1CCc2cc(OC)c(OC)c(OC)c2-c2ccc(SC)c(=O)cc21
0.0313 µM: HCT-15
active: 786-0 0.0393 µM | CCRF-CEM 0.0426 µM | HCC 2998 0.0247 µM | LOX IMVI 0.043 µM | M14 0.0226 µM | Malme-3M 0.0226 µM | NCI-H226 0.0231 µM | NCI-H522 < 0.01 µM | SK-OV-3 0.0238 µM | SNB-19 0.0329 µM | SNB-75 0.0395 µM | SR 0.0328 µM | SW-620 0.0316 µM | TK-10 0.759 µM
inactive: OVCAR-5 29.7 µM
